According to US6362369B1, “Phthalic acid diamide derivatives fluorine-containing aniline compounds as starting material, agricultural and horticultural insecticides, and a method for application of the insecticides” (Nihon Nohyaku Co., Ltd., priority 1997, dated 2002):

How the values were obtained:
[1] = system: diamondback moth (Plutella xylostella); assay: Insecticidal effect on diamondback moth (Test Example 1); type: in vivo; conditions: diamondback moth; judged by the mortality criterion of Test Example 1
Summary of the method: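 Eggs laid by adult moths on Chinese cabbage seedlings, which were immersed in test solution, air-dried and kept at 25 °C. Hatched insects counted 6 days after immersion and mortality calculated, with effect graded by criterion; triplicate groups of 10 insects.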

[2] = system: rice leafroller (Cnaphalocrocis medinalis); assay: Insecticidal effect on rice leafroller (Test Example 3); type: in vivo; conditions: 500 ppm, 25° C., humidity 70%; for Insecticidal effect, Test Example 3: rice lamina immersed, four days after inoculation; for Insecticidal effect (Test Example 3), judged from mortality: rice lamina dip, 4 days after inoculation
Protocol: Insecticidal effect on rice leafroller (Cnaphalocrocis medinalis)
After air-drying, the lamina was placed in a plastic Petri dish with a diameter of 9 cm whose bottom had been covered with a wetted filter paper. The lamina was inoculated with third-instar larvae of rice leafroller, after which the dish was allowed to stand in a room thermostated at 25° C. and having a humidity of 70%. Four days after the inoculation, the dead and alive were counted and the insecticidal effect was judged according to the criterion shown in Test Example 1. The test was carried out with triplicate groups of 10 insects.

[3] = third-instar larvae of rice leafroller
[4] = rice leafroller third-instar larvae

| Structure (SMILES) | Insecticidal effect, Test Example 1 [1] | Insecticidal effect, Test Example 3 [2, 3] | Insecticidal effect, Test Example 3 [2, 4] | Insecticidal effect (Test Example 3), judged from mortality [2, 3] |
| --- | --- | --- | --- | --- |
| CC(C)NC(=O)c1cccc(Br)c1C(=O)Nc1ccc(OC(F)(F)F)cc1 [Compound No. 302, 6-bromo-N^1-(4-trifluoromethoxyphenyl)-N^2-isopropylphthalic acid diamide] | A (100) | D (79-50) |  |  |
| CNC(=O)c1c(C(=O)Nc2ccc(OC(F)F)cc2C)cccc1[N+](=O)[O-] [compound 4] | A (100) | D (79-50) |  |  |
| CCNC(=O)c1cccc(Cl)c1C(=O)Nc1ccc(OC(F)F)cc1C [compound 9] | A (100) | A (100) |  |  |
| CCN(CC)C(=O)c1c(C(=O)Nc2cc(Cl)ccc2C)cccc1[N+](=O)[O-] [compound 13] | D (79-50) | D (79-50) |  |  |
| CCCNC(=O)c1c(Cl)cccc1C(=O)Nc1ccc(OC(F)F)cc1C [compound 15] | A (100) | A (100) |  |  |
| CCCNC(=O)c1c(C(=O)Nc2ccc(OC(F)F)cc2C)cccc1[N+](=O)[O-] [compound 17] | A (100) | D (79-50) |  |  |
| CCCNC(=O)c1c(C(=O)Nc2cc(Cl)ccc2C)cccc1[N+](=O)[O-] [compound 18] | D (79-50) | A (100) |  |  |
| CC(C)NC(=O)c1ccccc1C(=O)Nc1ccc(F)cc1 [compound 23] | A (100) | D (79-50) |  |  |
| Cc1ccccc1NC(=O)c1ccccc1C(=O)NC(C)C [compound 24] | A (100) | D (79-50) |  |  |
| CC(C)NC(=O)c1ccccc1C(=O)Nc1ccc(C(F)(F)F)cc1 [compound 25] | A (100) | A (100) |  |  |
| CC(C)NC(=O)c1ccccc1C(=O)Nc1cccc(C(F)(F)F)c1 [compound 26] | A (100) | D (79-50) |  |  |
| CC(C)NC(=O)c1ccccc1C(=O)Nc1cccc(Cl)c1Cl [compound 41] | A (100) | A (100) |  |  |
| CC(C)NC(=O)c1ccccc1C(=O)Nc1ccc(C(F)(F)F)cc1Cl [compound 45] | A (100) | A (100) |  |  |
| CC(C)NC(=O)c1ccccc1C(=O)Nc1ccc(C(F)(C(F)(F)F)C(F)(F)F)cc1Cl [compound 46] | A (100) | B (99-90) |  |  |
| Cc1ccc(Cl)cc1NC(=O)c1ccccc1C(=O)NC(C)C [compound 51] | A (100) | A (100) |  |  |
| Cc1ccc(F)cc1NC(=O)c1ccccc1C(=O)NC(C)C [compound 53] | A (100) | A (100) |  |  |
| COCOc1ccc(NC(=O)c2ccccc2C(=O)NC(C)C)c(C)c1 [compound 69] | A (100) | A (100) |  |  |
| CSCOc1ccc(NC(=O)c2ccccc2C(=O)NC(C)C)c(C)c1 [compound 70] | A (100) | A (100) |  |  |
| Cc1cc(Oc2ccc(C(F)(F)F)cc2Cl)ccc1NC(=O)c1ccccc1C(=O)NC(C)C [compound 75] | A (100) | A (100) |  |  |

| Structure (SMILES) | Insecticidal effect, Test Example 1 [1] | Insecticidal effect, Test Example 3 [2, 3] | Insecticidal effect, Test Example 3 [2, 4] | Insecticidal effect (Test Example 3), judged from mortality [2, 3] |
| --- | --- | --- | --- | --- |
| Cc1cc(OCc2ccc(Cl)cc2)ccc1NC(=O)c1ccccc1C(=O)NC(C)C [compound 76] | C (89-80) | B (99-90) |  |  |
| CC(C)NC(=O)c1ccccc1C(=O)Nc1ccc2c(c1)nc(C(F)(F)F)n2C [compound 86] | B (99-90) | B (99-90) |  |  |
| CCCCc1ccc(NC(=O)c2cccc(Cl)c2C(=O)NC(C)C)cc1 [compound 87] | A (100) | A (100) |  |  |
| CC(C)NC(=O)c1c(Cl)cccc1C(=O)Nc1ccc(SC(F)F)cc1 [compound 98] | A (100) | C (89-80) |  |  |
| CC(C)NC(=O)c1c(Cl)cccc1C(=O)Nc1cccc(SC(F)(F)F)c1 [compound 99] | A (100) | A (100) |  |  |
| COC(Oc1ccc(NC(=O)c2cccc(Cl)c2C(=O)NC(C)C)c(C)c1)=C(C(F)(F)F)C(F)(F)F [compound 1293] |  |  | A (100) |  |
| Cc1cc(C#CC(C)(C)C)ccc1NC(=O)c1c(I)cccc1C(=O)NC(C)C [compound 1306] |  |  | A (100) |  |
| Cc1cc(C(F)(F)C(F)(F)F)ccc1NC(=O)c1c(Cl)cccc1C(=O)NCc1ccccc1 [compound 1308] |  |  | C (89-80) |  |
| Cc1cc(C(F)(F)C(F)(F)F)ccc1NC(=O)c1c(Cl)cccc1C(=O)NCc1ccccc1Cl [compound 1310] |  |  | B (99-90) |  |
| Cc1cc(C(F)(F)C(F)(F)F)ccc1NC(=O)c1c(Cl)cccc1C(=O)NCc1ccc(Cl)cc1Cl [compound 1350] |  |  | A (100) |  |
| Cc1cc(C(F)(F)C(F)(F)F)ccc1NC(=O)c1c(Cl)cccc1C(=O)NCCc1ccc(Cl)cc1 [compound 1361] |  |  | A (100) |  |
| Cc1cc(C(F)(F)C(F)(F)F)ccc1NC(=O)c1c(Cl)cccc1C(=O)NC(CO)c1ccc(Cl)cc1 (stereo not shown) [compound 1416] |  |  | A (100) |  |
| Cc1cc(OC(F)F)ccc1NC(=O)c1cccc(I)c1C(=O)NCc1ccccc1Cl [compound 1432] |  |  | A (100) |  |
| Cc1cc(C(F)(F)C(F)(F)F)ccc1NC(=O)c1c(Cl)cccc1C(=O)NC(C)(C)C#Cc1ccccc1 [compound 1480] |  |  |  | A (100) |
| Cc1cc(OC(F)(F)F)ccc1NC(=O)c1c(I)cccc1C(=O)NC(C)(C)CO [compound 1520] |  |  |  | A (100) |
| Cc1ccc(C#CC(C)(C)NC(=O)c2c(Cl)cccc2C(=O)Nc2ccc(C(F)(F)C(F)(F)F)cc2C)cc1 [compound 1570] |  |  |  | A (100) |
| Cc1c(NC(=O)c2cccc(I)c2C(=O)NC(C)C)ccc(C(F)(F)C(F)(F)F)c1C [compound 1640] |  |  |  | A (100) |
| Cc1cc(C(F)(F)C(F)(F)F)c(C)cc1NC(=O)c1cccc(I)c1C(=O)NC(C)C [compound 1655] |  |  |  | A (100) |
